Laboratory results published in publication PMC6074028 (Organic & biomolecular chemistry, 2009).
Read-outs that look alike come from different tables or passages of the source.

Assays:
[1] = biological target: T1, BaPanK (type-III pantothenate kinase from Bacillus anthracis) (Bacillus anthracis, UniProt Q81VX4); format: biochemical
[2] = biological target: T1, BaPanK (type-III pantothenate kinase from Bacillus anthracis); format: biochemical; remark: listed apart in the source

T1 sequence (Q81VX4 whole entry, looked up): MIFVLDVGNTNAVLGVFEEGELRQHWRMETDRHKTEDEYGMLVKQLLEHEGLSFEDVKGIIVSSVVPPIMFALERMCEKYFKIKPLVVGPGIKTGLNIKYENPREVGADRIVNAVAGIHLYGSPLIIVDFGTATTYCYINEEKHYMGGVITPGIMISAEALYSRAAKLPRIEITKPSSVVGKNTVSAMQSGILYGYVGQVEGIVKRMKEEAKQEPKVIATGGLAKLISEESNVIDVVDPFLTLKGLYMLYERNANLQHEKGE

Structure (SMILES) | Km [1] [µM] | Km [2] [µM]
Nc1ncnc2c1ncn2[C@@H]1O[C@H](COP(=O)(O)OP(=O)(O)OP(=O)(O)O)[C@@H](O)[C@H]1O [ATP] | 510 | –
Nc1ncnc2c1ncn2[C@H]1C[C@H](O)[C@@H](COP(=O)(O)OP(=O)(O)OP(=O)(O)O)O1 [dATP] | 138 | –
Nc1nc2c(ncn2[C@H]2C[C@H](O)[C@@H](COP(=O)(O)OP(=O)(O)OP(=O)(O)O)O2)c(=O)[nH]1 [dGTP] | 117 | –
Cc1cn([C@H]2C[C@H](O)[C@@H](COP(=O)(O)OP(=O)(O)OP(=O)(O)O)O2)c(=O)[nH]c1=O [dTTP] | 723 | –
CC(C)(CO)[C@@H](O)C(=O)NCCC(=O)O [pantothenate] | – | 275
